Residues, ends and D or L forms follow the SMILES beside them. *: point of attachment. Dansyl = CN(C)c1cccc2c(S(=O)(=O)*)cccc12
Key:
[1] = Preliminary toxicity studies
[2] = target: T1, SEVI (aggregated semen enhancer of virus infection) (Homo sapiens, UniProt P15309); experiment: Dansyl fluorescence binding study with SEVI
T1 construct: SEVI is the aggregated portion of the human protein that promotes infectivity
T1 sequence (P15309 248-286 limits assumed): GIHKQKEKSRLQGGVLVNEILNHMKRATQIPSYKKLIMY
Description: FIG. 1A is a graph of fluorescence spectra of a first dansylated peptide according to the present invention in a binding study with PAP and SEVI at a first concentration;
FIG. 1B is a graph of fluorescence spectra of the first dansylated peptide according to the present invention in a binding study with PAP and SEVI at a first concentration incubated for 24 hours;
FIG. 2A is a graph of fluorescence spectra of a first dansylated peptide according to the present invention in a binding study with PAP and SEVI at a second concentration; and
FIG. 2B is a graph of fluorescence spectra of a second dansylated peptide according to the present invention in a binding study with PAP and SEVI at a second concentration.
Dansyl is the fluorescent dye that is attached to peptides. A change in Dansyl fluorescence indicates change in the environment, i.e. binding. The physiological concentration of PAP and SEVI is 5 micromolar.

Compound	toxicity [1]	Kd [2]
CC[C@H](C)[C@H](NC(=O)[C@H](CCC(=O)O)NC(=O)[C@H](CCC(N)=O)NC(=O)[C@@H](NC(=O)[C@@H](NC(=O)[C@H](CCC(=O)O)NC(=O)[C@H](CCC(=O)O)NC(=O)[C@H](Cc1ccccc1)NS(=O)(=O)c1cccc2c(N(C)C)cccc12)[C@@H](C)CC)C(C)C)C(=O)N[C@@H](CCC(=O)O)C(=O)N[C@@H](CC(=O)O)C(=O)N[C@@H](Cc1ccccc1)C(=O)N[C@@H](CC(C)C)C(=O)N[C@@H](CCC(=O)O)C(=O)N[C@@H](CC(N)=O)C(=O)N[C@@H](CC(C)C)C(=O)N[C@H](C(N)=O)C(C)C [Peptide 1, FEEIVQEIEDFLENLV] (Dansyl-FEEIVQEIEDFLENLV-NH2)	non-toxic	< 5 µM
CC[C@H](C)[C@H](NC(=O)CNS(=O)(=O)c1cccc2c(N(C)C)cccc12)C(=O)NCC(=O)N[C@@H](C)C(=O)N[C@H](C(=O)N[C@@H](CC(C)C)C(=O)N[C@@H](CCC(=O)O)C(=O)N[C@H](C(=O)N[C@@H](CC(C)C)C(=O)N[C@H](C(=O)N[C@H](C(=O)NCC(=O)N[C@@H](CC(C)C)C(=O)N1CCC[C@H]1C(=O)N[C@@H](C)C(=O)N[C@@H](CC(C)C)C(=O)N[C@H](C(=O)N[C@@H](CO)C(=O)N[C@@H](Cc1c[nH]c2ccccc12)C(=O)N[C@H](C(=O)N[C@@H](CCC(=O)O)C(=O)N[C@@H](CCC(=O)O)C(=O)N[C@@H](CCC(=O)O)C(=O)N[C@@H](CCC(=O)O)C(=O)N[C@@H](CCC(N)=O)C(=O)N[C@@H](CCC(N)=O)C(N)=O)[C@@H](C)CC)[C@@H](C)CC)[C@@H](C)O)[C@@H](C)O)C(C)C)C(C)C [Peptide 2]	non-toxic	

From patent US10695399B2, “Peptides for prevention of HIV infection” (SYRACUSE UNIVERSITY, priority 2017, dated 2020)
